# Results: patent US20240245617A1, “LIPID-BASED TOPICAL INJECTION FORMULATIONS” (Beijing Jitai Pharmaceutical Technology Co., Ltd., priority 2022, published 2024)
# Tested on: C57BL/6 mice
# Assay: In vivo bioluminescence after intravenous administration of lipid nanoparticles encapsulating luciferase mRNA
# Details: 0.5 mg/kg mRNA, liver
# Description: The delivery effect and safety of nanoparticles encapsulating luciferase mRNA (Trilink, L-7202) in mice were evaluated. The test mice were SPF-grade C57BL/6 mice, female, 6-8 weeks old, weighing 18-22 g, and were purchased from SPF (Beijing) Biotechnology Co., Ltd. All animals were acclimatized for more than 7 days prior to the experiment, and had free access to food and water during the experiment. The conditions include alternating light and dark for 12/12 h, the indoor temperature of 20-26° C. and the humidity of 40-70%. The mice were randomly grouped. The lipid nanoparticles encapsulating luciferase mRNA prepared above were injected into mice by intravenous administration at a single dose of 0.5 mg/kg mRNA, and the mice were subjected to in vivo bioluminescence assay using a Small Animal In Vivo Imaging System (IVIS LUMINA III, purchased from PerkinElmer) at 6 h after administration. The assay was performed as follows: D-luciferin solution was prepared in saline at a concentration of 15 mg/mL, and each mouse was given the substrate by intraperitoneal injection. At ten minutes after administration of the substrate, the mice were anesthetized in an anesthesia chamber with isoflurane at a concentration of 2.5%. […] Data acquisition and analysis were performed on the liver.
# The in vivo delivery efficiency of lipid nanoparticle carriers was expressed as the mean values of fluorescence intensity and total photon count in different animals within the same subject group, as shown in Table 4. Higher values of fluorescence intensity and total photon count indicate higher in vivo delivery efficiency of this mRNA fragment by lipid nanoparticles. The lipid nanoparticles containing the cationic lipids of the present disclosure have good in vivo delivery efficiency and mainly target the liver.
row,SMILES,Total photon count in vivo at 6 hours after administration (Total Flux)
1,CCCCCCCCOC(=O)C(C)(C)CCCCCC(CCCCCC(C)(C)C(=O)OCCCCCCCC)OC(=O)CCN(C)C [Compound 2],4.23E+08
2,CCCCCCCCCOC(=O)C(C)(C)CCCCCC(CCCCCC(C)(C)C(=O)OCCCCCCCCC)OC(=O)CCN(C)C [Compound 3],1.75E+09
3,CC(C)CCCC(C)CCOC(=O)C(C)(C)CCCCCC(CCCCCC(C)(C)C(=O)OCCC(C)CCCC(C)C)OC(=O)CCN(C)C (centres unmarked) [Compound 6],2.25E+09
4,CC/C=C\CCCCCOC(=O)C(C)(C)CCCCCC(CCCCCC(C)(C)C(=O)OCCCCC/C=C\CC)OC(=O)CCN(C)C [Compound 7],1.16E+08
5,CCCCCCCCCCNC(=O)C(C)(C)CCCCCC(CCCCCC(C)(C)C(=O)NCCCCCCCCCC)OC(=O)CCN(C)C [Compound 8],3.26E+07
6,CCCCCCCCCNC(=O)C(C)(C)CCCCCC(CCCCCC(C)(C)C(=O)NCCCCCCCCC)OC(=O)CCN(C)C [Compound 9],6.05E+06
7,CCCCCCCCCCCCNC(=O)C(C)(C)CCCCCC(CCCCCC(C)(C)C(=O)NCCCCCCCCCCCC)OC(=O)CCN(C)C [Compound 10],1.26E+09
8,CCCCCCCCC(CCCCCCCC)NC(=O)C(C)(C)CCCCCC(CCCCCC(C)(C)C(=O)NC(CCCCCCCC)CCCCCCCC)OC(=O)CCN(C)C [Compound 11],4.42E+06
9,CCCCCCCCCN(CCCCCCCCC)C(=O)C(C)(C)CCCCCC(CCCCCC(C)(C)C(=O)N(CCCCCCCCC)CCCCCCCCC)OC(=O)CCN(C)C [Compound 12],1.10E+09
10,CCCCCCCCCCOC(=O)C(C)(C)CCCCCC(CCCCCC(C)(C)C(=O)OCCCCCCCCCC)OC(=O)CN(C)C [Compound 17],6.77E+05
11,CCCCCCCCCCOC(=O)C(C)(C)CCCCCC(CCCCCC(C)(C)C(=O)OCCCCCCCCCC)OC(=O)CCCN(C)C [Compound 18],1.14E+10
12,CCCCCCCCOC(=O)C(C)(C)CCCCCC(CCCCCC(C)(C)C(=O)OCCCCCCCC)OC(=O)CCCN(C)C [Compound 19],3.20E+09
13,CCCCCCCCCOC(=O)C(C)(C)CCCCCC(CCCCCC(C)(C)C(=O)OCCCCCCCCC)OC(=O)CCCN(C)C [Compound 20],2.40E+10
14,CCCCCCCC#CCOC(=O)C(C)(C)CCCCCC(CCCCCC(C)(C)C(=O)OCC#CCCCCCCC)OC(=O)CCCN(C)C [Compound 23],1.43E+10
15,CCCCC#CCCCCOC(=O)C(C)(C)CCCCCC(CCCCCC(C)(C)C(=O)OCCCCC#CCCCC)OC(=O)CCCN(C)C [Compound 25],1.89E+08
16,CCCCCCC/C=C\COC(=O)C(C)(C)CCCCCC(CCCCCC(C)(C)C(=O)OC/C=C\CCCCCCC)OC(=O)CCCN(C)C [Compound 26],>4.00E+10
17,CCCCCC/C=C\CCOC(=O)C(C)(C)CCCCCC(CCCCCC(C)(C)C(=O)OCC/C=C\CCCCCC)OC(=O)CCCN(C)C [Compound 27],2.20E+10
18,CCCCCCCCCOC(=O)C(C)(C)CCCCCC(CCCCCC(C)(C)C(=O)OCCCCCCCCC)OC(=O)CCCCCN(C)C [Compound 32],7.30E+09
19,CCCCCCCCCCSC(=O)C(C)(C)CCCCCC(CCCCCC(C)(C)C(=O)SCCCCCCCCCC)OC(=O)CCN(C)C [Compound 33],2.12E+08

row,SMILES,Total photon count in vivo at 6 hours after administration (Total Flux)
1,CCCCCCCCCCSC(=O)C(C)(C)CCCCCC(CCCCCC(C)(C)C(=O)SCCCCCCCCCC)OC(=O)CCCN(C)C [Compound 34],1.26E+10
2,CCCCCCCCCCSC(=O)C(C)(C)CCCCCC(CCCCCC(C)(C)C(=O)SCCCCCCCCCC)OC(=O)CCCCCN(C)C [Compound 36],4.84E+09
3,CCCCCCCCCSC(=O)C(C)(C)CCCCCC(CCCCCC(C)(C)C(=O)SCCCCCCCCC)OC(=O)CCCN(C)C [Compound 37],7.88E+09
4,CCCCCCCCCCSC(=O)C(C)(C)CCCCCC(CCCCCC(C)(C)C(=O)OCCCCCCCCC)OC(=O)CCCN(C)C (centres unmarked) [Compound 40],4.22E+09
5,CCCCCCCCCOC(=O)C(C)(C)CCCCCC(CCCCCC(C)(C)C(=O)SCCCCCCCCC)OC(=O)CCCN(C)C (centres unmarked) [Compound 41],2.19E+10
6,CCCCCCC#CCOC(=O)C(C)(C)CCCCCC(CCCCCC(C)(C)C(=O)OCCCCCCCCC)OC(=O)CCCN(C)C (centres unmarked) [Compound 42],5.32E+09
7,CCCCCCCCCOC(=O)C(C)(C)CCCCCC(CCCCCC(C)(C)C(=O)OCC(CCCCC)CCCCCCC)OC(=O)CCCN(C)C (centres unmarked) [Compound 46],>4.00E+10
8,CCCCCCCCCCOC(=O)C(C)(C)CCCCCC(CCCCCC(C)(C)C(=O)OCCCCCCCCCC)OC(=O)CCN1CCOCC1 [Compound 90],1.04E+07
9,CCCCCCCCCCOC(=O)C(C)(C)CCCCCC(CCCCCC(C)(C)C(=O)OCCCCCCCCCC)OC(=O)CN1CCOCC1 [Compound 91],1.29E+06
10,CCCCCCCCCCOC(=O)C(C)(C)CCCCCC(CCCCCC(C)(C)C(=O)OCCCCCCCCCC)OC(=O)CCN1CCCC1 [Compound 92],2.13E+09
11,CCCCCCC/C=C\COC(=O)CC(C)(C)CCCCC(CCCCC(C)(C)CC(=O)OCC(CCCCC)CCCCCCC)OC(=O)CCCN(C)C (centres unmarked) [Compound 98],2.12E+10
12,CCCCCCCCOC(=O)C(C)(C)CCCCCC(CCCCCC(C)(C)C(=O)OCCCCCCCC)OC(=O)C1CCN(C)CC1 [Compound 100],1.18E+10
13,CCCCCCCCOC(=O)C(C)(C)CCCCCC(CCCCCC(C)(C)C(=O)OCCCCCCCC)OC(=O)C1CCN(C(C)C)CC1 [Compound 101],5.19E+09
14,CCCCCCCCCOC(=O)C(C)(C)CCCCCC(CCCCCC(C)(C)C(=O)OCCCCCCCCC)OC(=O)C1CCN(C)CC1 [Compound 102],2.03E+10
15,CCCCCCCCCOC(=O)C(C)(C)CCCCCC(CCCCCC(C)(C)C(=O)OCCCCCCCCC)OC(=O)C1CCN(C(C)C)CC1 [Compound 103],5.69E+09
16,CCCCCCCCCCSC(=O)C(C)(C)CCCCCC(CCCCCC(C)(C)C(=O)SCCCCCCCCCC)OC(=O)C1CCN(C)CC1 [Compound 104],2.61E+10
17,CCCCCCCCCCSC(=O)C(C)(C)CCCCCC(CCCCCC(C)(C)C(=O)SCCCCCCCCCC)OC(=O)C1CCN(C(C)C)CC1 [Compound 105],3.33E+09
18,CCCCCCCCCSC(=O)C(C)(C)CCCCCC(CCCCCC(C)(C)C(=O)SCCCCCCCCC)OC(=O)C1CCN(C)CC1 [Compound 106],1.85E+10
19,CCCCCCCCCSC(=O)C(C)(C)CCCCCC(CCCCCC(C)(C)C(=O)SCCCCCCCCC)OC(=O)C1CCN(C(C)C)CC1 [Compound 107],1.36E+10
